Data taken from ChEMBL document CHEMBL3351638, “Discovery of 6-[5-(4-fluorophenyl)-3-methyl-pyrazol-4-yl]-benzoxazin-3-one derivatives as novel selective nonsteroidal mineralocorticoid receptor antagonists” (Bioorg Med Chem, 2014).

Key:
[1] = Oral bioavailability in Sprague-Dawley rat at 3 mg/kg; format: ADME, organism-based; settings: in vivo
Progesterone receptor = biological target: T1, Progesterone receptor (Homo sapiens, UniProt P06401); assay: Displacement of [[3H]-Progesterone from progesterone receptor (unknown origin) expressed in 293 cells after 16 hrs by scintillation counting; format: cell-based
T1 sequence (P06401 whole entry): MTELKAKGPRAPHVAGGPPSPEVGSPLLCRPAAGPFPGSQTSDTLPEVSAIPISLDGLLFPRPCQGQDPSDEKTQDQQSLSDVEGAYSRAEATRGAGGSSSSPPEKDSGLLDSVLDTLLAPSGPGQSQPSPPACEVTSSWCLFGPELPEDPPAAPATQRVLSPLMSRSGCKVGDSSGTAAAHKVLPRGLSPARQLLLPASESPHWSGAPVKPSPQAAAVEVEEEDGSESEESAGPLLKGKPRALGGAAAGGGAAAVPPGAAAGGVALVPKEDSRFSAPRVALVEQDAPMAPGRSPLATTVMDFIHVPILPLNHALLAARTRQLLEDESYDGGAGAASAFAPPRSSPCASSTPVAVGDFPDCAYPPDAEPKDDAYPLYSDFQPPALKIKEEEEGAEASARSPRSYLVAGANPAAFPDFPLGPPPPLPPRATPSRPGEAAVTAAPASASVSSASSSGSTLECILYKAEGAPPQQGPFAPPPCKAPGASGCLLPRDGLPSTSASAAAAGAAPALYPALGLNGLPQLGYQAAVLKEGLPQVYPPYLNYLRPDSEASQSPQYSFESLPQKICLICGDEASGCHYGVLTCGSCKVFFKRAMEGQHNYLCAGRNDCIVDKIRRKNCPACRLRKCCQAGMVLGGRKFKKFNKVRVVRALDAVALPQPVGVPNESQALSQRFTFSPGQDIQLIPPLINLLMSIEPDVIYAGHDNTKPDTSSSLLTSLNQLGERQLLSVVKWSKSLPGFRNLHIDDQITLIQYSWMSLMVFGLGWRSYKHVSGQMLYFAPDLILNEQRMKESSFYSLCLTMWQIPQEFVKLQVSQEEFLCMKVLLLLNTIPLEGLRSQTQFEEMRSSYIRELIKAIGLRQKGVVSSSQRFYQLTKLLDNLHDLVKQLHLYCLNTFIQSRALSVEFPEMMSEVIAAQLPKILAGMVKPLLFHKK

[2] = biological target: T2, Mineralocorticoid receptor (Homo sapiens, UniProt P08235)
T2 sequence (P08235 whole entry): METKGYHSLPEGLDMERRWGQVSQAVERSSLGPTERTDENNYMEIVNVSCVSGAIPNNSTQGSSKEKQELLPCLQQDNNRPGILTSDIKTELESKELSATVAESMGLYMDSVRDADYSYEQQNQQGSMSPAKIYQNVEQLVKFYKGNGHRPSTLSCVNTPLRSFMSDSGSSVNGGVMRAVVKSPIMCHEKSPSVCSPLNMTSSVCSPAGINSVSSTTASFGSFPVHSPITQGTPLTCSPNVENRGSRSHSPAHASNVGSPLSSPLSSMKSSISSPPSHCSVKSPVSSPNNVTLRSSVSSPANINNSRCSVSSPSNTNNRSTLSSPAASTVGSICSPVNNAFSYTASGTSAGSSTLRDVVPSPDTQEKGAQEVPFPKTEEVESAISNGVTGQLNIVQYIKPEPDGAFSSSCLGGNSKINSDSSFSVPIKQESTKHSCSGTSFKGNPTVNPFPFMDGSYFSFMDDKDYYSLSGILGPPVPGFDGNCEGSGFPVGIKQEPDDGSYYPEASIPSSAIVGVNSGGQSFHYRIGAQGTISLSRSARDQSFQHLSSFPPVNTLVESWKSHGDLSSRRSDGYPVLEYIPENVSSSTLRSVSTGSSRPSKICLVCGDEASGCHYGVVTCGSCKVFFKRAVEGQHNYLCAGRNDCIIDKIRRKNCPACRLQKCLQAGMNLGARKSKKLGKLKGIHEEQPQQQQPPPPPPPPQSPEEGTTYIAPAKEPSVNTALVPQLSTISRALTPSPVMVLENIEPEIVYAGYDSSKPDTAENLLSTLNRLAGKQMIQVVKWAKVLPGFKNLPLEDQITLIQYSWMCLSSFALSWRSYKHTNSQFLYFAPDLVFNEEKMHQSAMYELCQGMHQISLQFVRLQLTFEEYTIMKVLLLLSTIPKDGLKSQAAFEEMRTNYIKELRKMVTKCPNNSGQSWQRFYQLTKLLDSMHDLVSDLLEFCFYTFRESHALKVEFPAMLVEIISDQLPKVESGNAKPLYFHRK
Description: Antagonist activity at human mineralocorticoid receptor expressed in COS1 cells after 1 day by luciferase reporter gene assay

[3] = AUC (0 to 24 hrs) in Sprague-Dawley rat at 3 mg/kg, po; format: ADME, organism-based; design: time < 24 hr, dose 3 mg/kg, route oral; settings: plasma
[4] = Metabolic stability in rat hepatic microsomes at 1 umol/L pre-incubated fro 5 mins at 37 degC before addition of NADPH-generating system by UV detection based HPLC method; format: ADME; settings: liver microsomes, read-out: CLH
[5] = Volume of distribution at steady state in Sprague-Dawley rat at 1 mg/kg, iv; format: ADME, organism-based; design: dose 1 mg/kg, route intravenous; settings: in vivo, read-out: Vdss
Rattus norvegicus [6] = assay: Toxicity in DOCA-salt hypertensive Wistar rat model assessed as change in seminal vesicle weight at 100 mg/kg, po qd for 18 days measured 24 hrs post 7th and 14th last dose […]; format: organism-based; design: dose 100 mg/kg, route oral; settings: in vivo
[7] = Lipophilicity, log D of the compound at pH 7.4 by HPLC analysis; format: physicochemical; settings: buffer
Glucocorticoid receptor = Glucocorticoid receptor (Homo sapiens, UniProt P04150); assay: biochemical
Chain of Glucocorticoid receptor (P04150 whole entry, looked up): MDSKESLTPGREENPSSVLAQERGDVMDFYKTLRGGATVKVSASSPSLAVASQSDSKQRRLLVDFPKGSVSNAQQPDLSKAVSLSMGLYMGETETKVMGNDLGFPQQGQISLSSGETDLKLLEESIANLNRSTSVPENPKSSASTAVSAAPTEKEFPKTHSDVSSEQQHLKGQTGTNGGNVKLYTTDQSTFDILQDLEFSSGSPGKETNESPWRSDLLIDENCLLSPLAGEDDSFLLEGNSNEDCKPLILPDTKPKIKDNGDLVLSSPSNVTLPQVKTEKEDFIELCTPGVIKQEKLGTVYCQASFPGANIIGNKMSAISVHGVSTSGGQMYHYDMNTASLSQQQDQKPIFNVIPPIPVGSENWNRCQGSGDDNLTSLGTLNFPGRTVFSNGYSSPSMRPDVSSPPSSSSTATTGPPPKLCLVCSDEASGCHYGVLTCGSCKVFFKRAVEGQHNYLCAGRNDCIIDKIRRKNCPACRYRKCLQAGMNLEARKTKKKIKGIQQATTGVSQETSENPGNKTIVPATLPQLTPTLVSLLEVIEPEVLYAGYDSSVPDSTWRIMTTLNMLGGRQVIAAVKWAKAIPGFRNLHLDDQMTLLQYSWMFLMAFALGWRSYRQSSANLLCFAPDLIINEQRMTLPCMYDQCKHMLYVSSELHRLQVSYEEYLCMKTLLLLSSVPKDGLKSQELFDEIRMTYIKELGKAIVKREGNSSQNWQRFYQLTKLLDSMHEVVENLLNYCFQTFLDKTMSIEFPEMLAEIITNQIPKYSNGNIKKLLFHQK
Description: Displacement of [3H]-Dexamethasone from glucocorticoid receptor (unknown origin) expressed in 293 cells after 16 hrs by scintillation counting

[8] = biological target: T2, Mineralocorticoid receptor; assay: biochemical
Description: Displacement of [3H]aldosterone from human mineralocorticoid receptor expressed in 293 cells after 16 hrs by scintillation counting

[9] = Mean residence time in Sprague-Dawley rat at 3 mg/kg, po; format: ADME, organism-based; design: dose 3 mg/kg, route oral; settings: in vivo
Rattus norvegicus [10] = assay: Toxicity in DOCA-salt hypertensive Wistar rat model assessed as change in heart rate at 100 mg/kg, po qd for 18 days measured 24 hrs post 7th and 14th last dose by tail-cuff method; format: organism-based; design: dose 100 mg/kg, route oral; settings: in vivo
[11] = Clearance in Sprague-Dawley rat at 1 mg/kg, iv; format: ADME, organism-based; design: dose 1 mg/kg, route intravenous; settings: in vivo
Androgen receptor = biological target: T3, Androgen receptor (Homo sapiens, UniProt P10275); assay: biochemical
T3 sequence (P10275 whole entry): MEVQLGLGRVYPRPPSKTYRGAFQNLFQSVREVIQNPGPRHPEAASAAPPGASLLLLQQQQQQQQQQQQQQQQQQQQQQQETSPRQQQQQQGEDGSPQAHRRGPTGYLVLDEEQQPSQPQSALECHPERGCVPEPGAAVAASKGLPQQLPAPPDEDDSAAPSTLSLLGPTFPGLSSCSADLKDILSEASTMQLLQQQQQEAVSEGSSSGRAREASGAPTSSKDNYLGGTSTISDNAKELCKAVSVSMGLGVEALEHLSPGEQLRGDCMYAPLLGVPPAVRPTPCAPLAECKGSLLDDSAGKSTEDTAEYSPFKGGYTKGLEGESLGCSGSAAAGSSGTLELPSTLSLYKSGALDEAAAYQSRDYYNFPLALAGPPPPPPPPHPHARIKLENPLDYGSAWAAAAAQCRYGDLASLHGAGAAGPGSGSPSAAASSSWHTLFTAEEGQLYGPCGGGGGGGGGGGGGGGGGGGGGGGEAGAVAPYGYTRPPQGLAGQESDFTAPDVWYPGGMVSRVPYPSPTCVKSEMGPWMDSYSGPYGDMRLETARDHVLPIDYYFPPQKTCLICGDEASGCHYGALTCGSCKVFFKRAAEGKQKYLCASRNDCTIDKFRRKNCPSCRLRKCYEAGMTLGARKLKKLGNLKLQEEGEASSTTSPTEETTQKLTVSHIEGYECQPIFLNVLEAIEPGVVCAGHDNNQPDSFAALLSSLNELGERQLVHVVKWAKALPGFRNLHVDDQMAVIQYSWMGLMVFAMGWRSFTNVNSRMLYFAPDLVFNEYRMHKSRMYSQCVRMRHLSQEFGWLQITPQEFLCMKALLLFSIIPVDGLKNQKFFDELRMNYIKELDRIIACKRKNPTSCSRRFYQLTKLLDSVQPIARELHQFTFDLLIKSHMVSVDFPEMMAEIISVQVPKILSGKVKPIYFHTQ
Description: Displacement of [3H]testosterone from androgen receptor (unknown origin) expressed in 293 cells after 16 hrs by scintillation counting

bioavailability [1]: 21.4%
IC50 (Progesterone receptor): > 10000 nM
IC50 [2]: 71 nM
AUC(0-t) at 24 h [3]: 662 ng·h/mL
microsomal CLint at 1 µM [4]: > 42 µL/min/mg
Vd [5]: 1.36 L/kg
logD [7]: 2.05
IC50 (Glucocorticoid receptor): 2400 nM
IC50 [8]: 51 nM
MRT [9]: 3.77 h
clearance [11]: 16.5 mL/min/kg
IC50 (Androgen receptor): > 10000 nM
Compound: Cc1nn(CC(F)(F)CO)c(-c2ccc(F)cc2)c1-c1ccc2c(c1)NC(=O)CO2
Activity (Rattus norvegicus [6]): Non-toxic
Activity (Rattus norvegicus [10]): Non-toxic
